Results published in patent publication US11040958B2, “Triazole antimicrobial derivative, pharmaceutical composition and use thereof” (priority 2017, dated 2021).

Tests used:
[1] = Pharmacokinetics after single intravenous administration in rats (plasma voriconazole); settings: both, SD, rat, in vivo, iv, 2.5 mg/kg
Method in brief: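 SD rats (180–220 g, 3 male/3 female per group) given single tail-vein dose of 2.5 mg/kg (as voriconazole). Plasma voriconazole measured in blood sampled at multiple time points post-dose.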

[2] = tested on: Candida albicans ATCC10231; assay: Systemic fungal infection in mice, administration by gavage, survival; assay type: in vivo; settings: ICR mice, 5 mg/kg (calculated as voriconazole) once daily for 5 days
Method in brief: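 Male ICR mice (18-22 g) infected via tail vein with C. albicans ATCC10231 at 5*10^6/ml, 0.1 ml/10 g. Starting 2 h post-infection, 5 mg/kg (as voriconazole) given by gavage once daily for 5 days; saline for model group. Groups of 10; survival time recorded over 7 days.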

Question: For CC(OC(=O)SCCO)[n+]1cnn(C[C@](O)(c2ccc(F)cc2F)[C@@H](C)c2ncncc2F)c1 (stereo partly drawn) [Compound 16037], which AUClast [1] is on record?
Answer: Its AUClast is 9120 ± 3254 ng·h/mL.

Question: And the T1/2 [1]?
Answer: The T1/2 was 2.47 ± 0.75 h.

Question: And the “survival rate of mice, day 1” value ([2]; day 1)?
Answer: The value was 100%.

Question: And the “survival rate of mice, day 2” value ([2]; day 2)?
Answer: The value was 100%.

Question: What about the “survival rate of mice, day 3” value ([2]; day 3) of the same compound?
Answer: The value was 100%.

Question: And the “survival rate of mice, day 4” value ([2]; day 4)?
Answer: Its value is 100%.

Question: And the “survival rate of mice, day 5” value ([2]; day 5)?
Answer: The value was 90%.

Question: What about the “survival rate of mice, day 6” value ([2]; day 6) of the same compound?
Answer: Its value is 80%.

Question: What about the “survival rate of mice, day 7” value ([2]; day 7) of the same compound?
Answer: Its value is 80%.
